# Laboratory results taken from US6525001B1, “Substituted pyrimidine and pyridine herbicides” (Mid-American Commercialization Corporation, priority 1997, dated 2003).
# Key:
# Assay in all cases: Test B pre-/postemergence
# Assay type in all cases: in vivo
# Set-up in all cases: key: 0 is no effect; 10 is complete control
# [1] = system: bedstraw (Galium aparine)
# Method in brief: (§1)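 Response scores run from 0, meaning no effect, to 10, meaning complete control, assigned by eye relative to controls twelve to sixteen days after spraying. Treatment was both preemergence on planted seed and postemergence on plants at the 1- to 4-leaf stage.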
# [2] = system: cocklebur (Xanthium strumarium)
# Method in brief: as §1
# corn (Zea mays) = system: corn (Zea mays)
# Method in brief: as §1
# [3] = system: crabgrass (Digitaria sanguinalis)
# Method in brief: as §1
# [4] = system: giant foxtail (Setaria faberii)
# Method in brief: as §1
# [5] = system: momingglory (Ipomoea hederacea)
# Method in brief: as §1
# [6] = system: pigweed (Amaranthus retroflexus)
# Method in brief: as §1
# [7] = system: purple nutsedge (Cyperus rotundus)
# Method in brief: as §1
# rape (Brassica napus) = system: rape (Brassica napus)
# Method in brief: as §1
# soybean (Glycine max) = system: soybean (Glycine max)
# Method in brief: as §1
# [8] = system: sugar beet (Beta vulgaris)
# Method in brief: as §1
# [9] = system: velvetleaf (Abutilon theophrasti)
# Method in brief: as §1
# [10] = system: wheat (Triticum aestivum)
# Method in brief: as §1
# wild oat (Avena fatua) = system: wild oat (Avena fatua)
# Method in brief: as §1
compound,measurement,setting,value
Cc1cnc(-c2ccc(C(F)(F)F)cc2)nc1Cn1ccc(C(F)(F)C(F)(F)F)n1 [Compound 14],"Plant response rating, Bedstraw","[1]; Rate 62 g/ha, Postemergence",4
same,Bedstraw plant response rating,"[1]; Rate 62 g/ha, Preemergence",0
same,"Plant response rating, Bedstraw","[1]; Rate 125 g/ha, Postemergence",4
same,Bedstraw plant response rating,"[1]; Rate 125 g/ha, Preemergence",0
same,"Plant response rating, Bedstraw","[1]; Rate 250 g/ha, Postemergence",8
same,"Plant response rating, Bedstraw","[1]; Rate 250 g/ha, Preemergence",0
same,"Plant response rating, Bedstraw","[1]; Rate 500 g/ha, Postemergence",10
same,"Plant response rating, Bedstraw","[1]; Rate 500 g/ha, Preemergence",2
same,"Plant response rating, Cocklebur","[2]; Rate 62 g/ha, Postemergence",4
same,Cocklebur plant response rating,"[2]; Rate 62 g/ha, Preemergence",0
same,"Plant response rating, Cocklebur","[2]; Rate 125 g/ha, Postemergence",7
same,"Plant response rating, Cocklebur","[2]; Rate 250 g/ha, Postemergence",7
same,"Plant response rating, Cocklebur","[2]; Rate 250 g/ha, Preemergence",0
same,"Plant response rating, Cocklebur","[2]; Rate 500 g/ha, Postemergence",7
same,"Plant response rating, Corn","corn (Zea mays); Rate 62 g/ha, Postemergence",2
same,Corn plant response rating,"corn (Zea mays); Rate 62 g/ha, Preemergence",0
same,"Plant response rating, Corn","corn (Zea mays); Rate 125 g/ha, Postemergence",2
same,Corn plant response rating,"corn (Zea mays); Rate 125 g/ha, Preemergence",0
same,"Plant response rating, Corn","corn (Zea mays); Rate 250 g/ha, Postemergence",3
same,"Plant response rating, Corn","corn (Zea mays); Rate 250 g/ha, Preemergence",0
same,"Plant response rating, Corn","corn (Zea mays); Rate 500 g/ha, Postemergence",3
same,"Plant response rating, Corn","corn (Zea mays); Rate 500 g/ha, Preemergence",3
same,"Plant response rating, Crabgrass","[3]; Rate 62 g/ha, Postemergence",2
same,Crabgrass plant response rating,"[3]; Rate 62 g/ha, Preemergence",0
same,"Plant response rating, Crabgrass","[3]; Rate 125 g/ha, Postemergence",2
same,Crabgrass plant response rating,"[3]; Rate 125 g/ha, Preemergence",1
same,"Plant response rating, Crabgrass","[3]; Rate 250 g/ha, Postemergence",2
same,"Plant response rating, Crabgrass","[3]; Rate 250 g/ha, Preemergence",7
same,"Plant response rating, Crabgrass","[3]; Rate 500 g/ha, Postemergence",4
same,"Plant response rating, Crabgrass","[3]; Rate 500 g/ha, Preemergence",8
same,"Plant response rating, Giant foxtail","[4]; Rate 62 g/ha, Postemergence",1
same,Giant foxtail plant response rating,"[4]; Rate 62 g/ha, Preemergence",0
same,"Plant response rating, Giant foxtail","[4]; Rate 125 g/ha, Postemergence",1
same,Giant foxtail plant response rating,"[4]; Rate 125 g/ha, Preemergence",4
same,"Plant response rating, Giant foxtail","[4]; Rate 250 g/ha, Postemergence",1
same,"Plant response rating, Giant foxtail","[4]; Rate 250 g/ha, Preemergence",7
same,"Plant response rating, Giant foxtail","[4]; Rate 500 g/ha, Postemergence",3
same,"Plant response rating, Giant foxtail","[4]; Rate 500 g/ha, Preemergence",9
same,"Plant response rating, Morningglory","[5]; Rate 62 g/ha, Postemergence",2
same,Morningglory plant response rating,"[5]; Rate 62 g/ha, Preemergence",0
same,"Plant response rating, Morningglory","[5]; Rate 125 g/ha, Postemergence",6
same,Morningglory plant response rating,"[5]; Rate 125 g/ha, Preemergence",0
same,"Plant response rating, Morningglory","[5]; Rate 250 g/ha, Postemergence",6
same,"Plant response rating, Morningglory","[5]; Rate 250 g/ha, Preemergence",2
same,"Plant response rating, Morningglory","[5]; Rate 500 g/ha, Postemergence",8
same,"Plant response rating, Morningglory","[5]; Rate 500 g/ha, Preemergence",8
same,"Plant response rating, Redroot pigweed","[6]; Rate 62 g/ha, Postemergence",8
same,Redroot pigweed plant response rating,"[6]; Rate 62 g/ha, Preemergence",0
same,"Plant response rating, Redroot pigweed","[6]; Rate 125 g/ha, Postemergence",9
same,Redroot pigweed plant response rating,"[6]; Rate 125 g/ha, Preemergence",2
same,"Plant response rating, Redroot pigweed","[6]; Rate 250 g/ha, Postemergence",9
same,"Plant response rating, Redroot pigweed","[6]; Rate 250 g/ha, Preemergence",4
same,"Plant response rating, Redroot pigweed","[6]; Rate 500 g/ha, Postemergence",9
same,"Plant response rating, Redroot pigweed","[6]; Rate 500 g/ha, Preemergence",4
same,"Plant response rating, Nutsedge","[7]; Rate 62 g/ha, Postemergence",0
same,Nutsedge plant response rating,"[7]; Rate 62 g/ha, Preemergence",0
same,"Plant response rating, Nutsedge","[7]; Rate 125 g/ha, Postemergence",0
same,Nutsedge plant response rating,"[7]; Rate 125 g/ha, Preemergence",0
same,"Plant response rating, Nutsedge","[7]; Rate 250 g/ha, Postemergence",0
same,"Plant response rating, Nutsedge","[7]; Rate 250 g/ha, Preemergence",0
same,"Plant response rating, Nutsedge","[7]; Rate 500 g/ha, Postemergence",0
same,"Plant response rating, Nutsedge","[7]; Rate 500 g/ha, Preemergence",0
same,"Plant response rating, Rape","rape (Brassica napus); Rate 62 g/ha, Postemergence",5
same,Rape plant response rating,"rape (Brassica napus); Rate 62 g/ha, Preemergence",0
same,"Plant response rating, Rape","rape (Brassica napus); Rate 125 g/ha, Postemergence",6
same,Rape plant response rating,"rape (Brassica napus); Rate 125 g/ha, Preemergence",1
same,"Plant response rating, Rape","rape (Brassica napus); Rate 250 g/ha, Postemergence",6
same,"Plant response rating, Rape","rape (Brassica napus); Rate 250 g/ha, Preemergence",2
same,"Plant response rating, Rape","rape (Brassica napus); Rate 500 g/ha, Postemergence",7
same,"Plant response rating, Rape","rape (Brassica napus); Rate 500 g/ha, Preemergence",8
same,"Plant response rating, Soybean","soybean (Glycine max); Rate 62 g/ha, Postemergence",4
same,Soybean plant response rating,"soybean (Glycine max); Rate 62 g/ha, Preemergence",0
same,"Plant response rating, Soybean","soybean (Glycine max); Rate 125 g/ha, Postemergence",4
same,Soybean plant response rating,"soybean (Glycine max); Rate 125 g/ha, Preemergence",0
same,"Plant response rating, Soybean","soybean (Glycine max); Rate 250 g/ha, Postemergence",5
same,"Plant response rating, Soybean","soybean (Glycine max); Rate 250 g/ha, Preemergence",0
same,"Plant response rating, Soybean","soybean (Glycine max); Rate 500 g/ha, Postemergence",5
same,"Plant response rating, Soybean","soybean (Glycine max); Rate 500 g/ha, Preemergence",1
same,"Plant response rating, Sugarbeets","[8]; Rate 62 g/ha, Postemergence",7
same,Sugarbeets plant response rating,"[8]; Rate 62 g/ha, Preemergence",3
same,"Plant response rating, Sugarbeets","[8]; Rate 125 g/ha, Postemergence",8
same,Sugarbeets plant response rating,"[8]; Rate 125 g/ha, Preemergence",5
same,"Plant response rating, Sugarbeets","[8]; Rate 250 g/ha, Postemergence",8
same,"Plant response rating, Sugarbeets","[8]; Rate 250 g/ha, Preemergence",6
same,"Plant response rating, Sugarbeets","[8]; Rate 500 g/ha, Postemergence",9
same,"Plant response rating, Sugarbeets","[8]; Rate 500 g/ha, Preemergence",9
same,"Plant response rating, Velvetleaf","[9]; Rate 62 g/ha, Postemergence",3
same,Velvetleaf plant response rating,"[9]; Rate 62 g/ha, Preemergence",0
same,"Plant response rating, Velvetleaf","[9]; Rate 125 g/ha, Postemergence",4
same,Velvetleaf plant response rating,"[9]; Rate 125 g/ha, Preemergence",0
same,"Plant response rating, Velvetleaf","[9]; Rate 250 g/ha, Postemergence",4
same,"Plant response rating, Velvetleaf","[9]; Rate 250 g/ha, Preemergence",1
same,"Plant response rating, Velvetleaf","[9]; Rate 500 g/ha, Postemergence",4
same,"Plant response rating, Velvetleaf","[9]; Rate 500 g/ha, Preemergence",7
same,"Plant response rating, Wheat","[10]; Rate 62 g/ha, Postemergence",0
same,Wheat plant response rating,"[10]; Rate 62 g/ha, Preemergence",0
same,"Plant response rating, Wheat","[10]; Rate 125 g/ha, Postemergence",0
same,Wheat plant response rating,"[10]; Rate 125 g/ha, Preemergence",0
same,"Plant response rating, Wheat","[10]; Rate 250 g/ha, Postemergence",2
same,"Plant response rating, Wheat","[10]; Rate 250 g/ha, Preemergence",0
same,"Plant response rating, Wheat","[10]; Rate 500 g/ha, Postemergence",3
same,"Plant response rating, Wheat","[10]; Rate 500 g/ha, Preemergence",0
same,"Plant response rating, Wild oats","wild oat (Avena fatua); Rate 62 g/ha, Postemergence",0
same,Wild oats plant response rating,"wild oat (Avena fatua); Rate 62 g/ha, Preemergence",0
same,"Plant response rating, Wild oats","wild oat (Avena fatua); Rate 125 g/ha, Postemergence",1
same,Wild oats plant response rating,"wild oat (Avena fatua); Rate 125 g/ha, Preemergence",0
same,"Plant response rating, Wild oats","wild oat (Avena fatua); Rate 250 g/ha, Postemergence",3
same,"Plant response rating, Wild oats","wild oat (Avena fatua); Rate 250 g/ha, Preemergence",0
same,"Plant response rating, Wild oats","wild oat (Avena fatua); Rate 500 g/ha, Postemergence",3
same,"Plant response rating, Wild oats","wild oat (Avena fatua); Rate 500 g/ha, Preemergence",2
